Experimental data from ChEMBL document CHEMBL3046274, “Toxicity of imidacloprid to developmental stages of Rhynchophorus ferrugineus (Curculionidae: Coleoptera): Laboratory and field tests” (Crop Prot, 2006).
Calls of active or inactive are those of the source. The calls are words filed in the database; no cut-off is given here.

Experiments:
[1] = system: Rhynchophorus ferrugineus; assay: Contact toxicity against Rhynchophorus ferrugineus (red palm weevil) adults assessed as time required for 50% reversible knockdown at 1.5 ml/l for 5 min; format: functional
[2] = system: Rhynchophorus ferrugineus; assay: Pesticidal activity against adult Rhynchophorus ferrugineus (red palm weevil) assessed as mortality at 500 ppm administered topically at 72 hr post-treatment; format: functional
[3] = system: Rhynchophorus ferrugineus; assay: Pesticidal activity against adult Rhynchophorus ferrugineus (red palm weevil) assessed as mortality at 2 ppm, po at 114 hr post-treatment relative to control; format: functional
[4] = system: Rhynchophorus ferrugineus; assay: Pesticidal activity against Rhynchophorus ferrugineus (red palm weevil) larvae assessed as mortality at 4 ppm, po at 72 hr post-treatment relative to control; format: functional
[5] = system: Rhynchophorus ferrugineus; assay: Contact toxicity against Rhynchophorus ferrugineus (red palm weevil) adults assessed as time required for 100% reversible knockdown at 2.5 ml/l for 2 min; format: functional
[6] = system: Rhynchophorus ferrugineus; assay: Pesticidal activity against Rhynchophorus ferrugineus (red palm weevil) larvae infested date palm tree assessed as non-feeding status of collected live stage larvae at 20 ml/4l of water applied through soil-drench irrigation measured after 3 weeks relative to control; format: functional, organism-based
[7] = system: Rhynchophorus ferrugineus; assay: Pesticidal activity against Rhynchophorus ferrugineus (red palm weevil) cocoons assessed as time required for total mortality at 2.5 ml/l administered by dipping for 10 secs; format: functional
[8] = system: Rhynchophorus ferrugineus; assay: Pesticidal activity against Rhynchophorus ferrugineus (red palm weevil) larvae assessed as mortality at 1.5 ppm, po at 18 hr post-treatment relative to control; format: functional
[9] = system: Rhynchophorus ferrugineus; assay: Pesticidal activity against Rhynchophorus ferrugineus (red palm weevil) larvae assessed as mortality at 1.5 ppm, po at 24 hr post-treatment relative to control; format: functional
[10] = system: Rhynchophorus ferrugineus; assay: Pesticidal activity Rhynchophorus ferrugineus (red palm weevil) larvae assessed as time required after hatching for 100% mortality at 2.5 ml/l administered topically measured up to 14 days relative to control; format: functional
[11] = system: Rhynchophorus ferrugineus; assay: Pesticidal activity against adult Rhynchophorus ferrugineus (red palm weevil) assessed as time required for 100% mortality at 2.5 ml/l administered topically; format: functional
[12] = system: Rhynchophorus ferrugineus; assay: Pesticidal activity Rhynchophorus ferrugineus (red palm weevil) larvae assessed as time required after hatching for 100% mortality at 3.5 ml/l administered topically measured up to 14 days relative to control; format: functional
[13] = system: Rhynchophorus ferrugineus; assay: Pesticidal activity against adult Rhynchophorus ferrugineus (red palm weevil) assessed as time required for 100% mortality at 3.5 ml/l administered topically; format: functional
[14] = system: Rhynchophorus ferrugineus; assay: Pesticidal activity against Rhynchophorus ferrugineus (red palm weevil) cocoon assessed as mortality at 4 ppm administered by dipping for 3 min measured at 72 hr post-treatment relative to control; format: functional
[15] = system: Rhynchophorus ferrugineus; assay: Pesticidal activity Rhynchophorus ferrugineus (red palm weevil) larvae assessed as time required after hatching for 100% mortality at 1.5 ml/l administered topically measured up to 14 days relative to control; format: functional
[16] = system: Rhynchophorus ferrugineus; assay: Pesticidal activity against adult Rhynchophorus ferrugineus (red palm weevil) assessed as mortality at 100 ppm administered topically at 48 hr post-treatment; format: functional
[17] = system: Rhynchophorus ferrugineus; assay: Pesticidal activity against Rhynchophorus ferrugineus (red palm weevil) larvae assessed as mortality at 1.5 ppm, po at 72 hr post-treatment relative to control; format: functional
[18] = system: Rhynchophorus ferrugineus; assay: Pesticidal activity against adult Rhynchophorus ferrugineus (red palm weevil) assessed as time required for reversible knockdown at 2.5 ml/l administered topically; format: functional
[19] = system: Rhynchophorus ferrugineus; assay: Pesticidal activity against adult Rhynchophorus ferrugineus (red palm weevil) assessed as mortality at 1000 ppm administered topically at 72 hr post-treatment; format: functional
[20] = system: Rhynchophorus ferrugineus; assay: Pesticidal activity against adult Rhynchophorus ferrugineus (red palm weevil) assessed as mortality at 1.5 ppm, po at 48 hr post-treatment relative to control; format: functional
[21] = system: Rhynchophorus ferrugineus; assay: Pesticidal activity against Rhynchophorus ferrugineus (red palm weevil) larvae assessed as mortality at 300 ppm administered topically at 48 hr post-treatment; format: functional
[22] = system: Rhynchophorus ferrugineus; assay: Pesticidal activity against Rhynchophorus ferrugineus (red palm weevil) larvae infested date palm tree assessed as mortality at 20 ml/4l of water applied through soil-drench irrigation measured after 3 weeks relative to control; format: functional
[23] = system: Rhynchophorus ferrugineus; assay: Pesticidal activity against Rhynchophorus ferrugineus (red palm weevil) larvae infested date palm trees assessed as mortality at 2.5 ml/l applied through soil-drench irrigation 1 week after infestation measured on day 20 post-treatment relative to control; format: functional
[24] = system: Rhynchophorus ferrugineus; assay: Pesticidal activity against Rhynchophorus ferrugineus (red palm weevil) larvae assessed as mortality at 6 ppm, po at 48 hr post-treatment relative to control; format: functional
[25] = system: Rhynchophorus ferrugineus; assay: Contact toxicity against Rhynchophorus ferrugineus (red palm weevil) adults assessed as time required for 50% mortality at 2.5 ml/l for 2 min; format: functional
[26] = system: Rhynchophorus ferrugineus; assay: Pesticidal activity against Rhynchophorus ferrugineus (red palm weevil) larvae assessed as mortality at 100 ppm administered topically at 48 hr post-treatment; format: functional
[27] = system: Rhynchophorus ferrugineus; assay: Pesticidal activity against Rhynchophorus ferrugineus (red palm weevil) cocoon assessed as mortality at 20 ppm administered by dipping for 3 min measured at 48 hr post-treatment relative to control; format: functional
[28] = system: Rhynchophorus ferrugineus; assay: Contact toxicity against Rhynchophorus ferrugineus (red palm weevil) adults assessed as time required for 50% mortality at 1.5 ml/l for 2 min; format: functional
[29] = system: Rhynchophorus ferrugineus; assay: Pesticidal activity against Rhynchophorus ferrugineus (red palm weevil) larvae assessed as mortality at 2 ppm, po at 18 hr post-treatment relative to control; format: functional
[30] = system: Rhynchophorus ferrugineus; assay: Pesticidal activity against Rhynchophorus ferrugineus (red palm weevil) larvae infested date palm trees assessed as mortality at 2.5 ml/l applied through soil-drench irrigation 1 week after infestation measured on day 30 post-treatment relative to control; format: functional
[31] = system: Rhynchophorus ferrugineus; assay: Pesticidal activity against Rhynchophorus ferrugineus (red palm weevil) larvae assessed as mortality at 0.5 ppm, po at 90 hr post-treatment relative to control; format: functional
[32] = system: Rhynchophorus ferrugineus; assay: Pesticidal activity against Rhynchophorus ferrugineus (red palm weevil) larvae assessed as mortality at 1 ppm, po at 90 hr post-treatment relative to control; format: functional
[33] = system: Rhynchophorus ferrugineus; assay: Pesticidal activity against adult Rhynchophorus ferrugineus (red palm weevil) infested date palm tree assessed as disorientation of collected live stage larvae at 20 ml/4l of water applied through soil-drench irrigation measured after 3 weeks relative to control; format: functional, organism-based
[34] = system: Rhynchophorus ferrugineus; assay: Pesticidal activity against Rhynchophorus ferrugineus (red palm weevil) cocoons assessed as time required for total mortality at 1.5 ml/l administered by dipping for 5 secs; format: functional
[35] = system: Rhynchophorus ferrugineus; assay: Pesticidal activity against adult Rhynchophorus ferrugineus (red palm weevil) assessed as mortality at 0.5 ppm, po at 48 hr post-treatment relative to control; format: functional
[36] = system: Rhynchophorus ferrugineus; assay: Pesticidal activity against Rhynchophorus ferrugineus (red palm weevil) cocoons assessed as time required for total mortality at 1.5 ml/l administered by dipping for 10 secs; format: functional
[37] = system: Rhynchophorus ferrugineus; assay: Pesticidal activity against Rhynchophorus ferrugineus (red palm weevil) larvae assessed as mortality at 1 ppm, po at 18 hr post-treatment relative to control; format: functional
[38] = system: Rhynchophorus ferrugineus; assay: Pesticidal activity against adult Rhynchophorus ferrugineus (red palm weevil) assessed as mortality at 300 ppm administered topically at 18 hr post-treatment; format: functional
[39] = system: Rhynchophorus ferrugineus; assay: Contact toxicity against Rhynchophorus ferrugineus (red palm weevil) adults assessed as time required for 100% mortality at 3.5 ml/l for 2 min; format: functional
[40] = system: Rhynchophorus ferrugineus; assay: Contact toxicity against Rhynchophorus ferrugineus (red palm weevil) adults assessed as time required for 50% reversible knockdown at 3.5 ml/l for 5 min; format: functional
[41] = system: Rhynchophorus ferrugineus; assay: Pesticidal activity against Rhynchophorus ferrugineus (red palm weevil) cocoon assessed as mortality at 0.5 ppm administered by dipping for 3 min measured at 24 hr post-treatment relative to control; format: functional

O=[N+]([O-])/N=C1\NCCN1Cc1ccc(Cl)nc1 [IMIDACLOPRID]
Time [1]: 3.2 days | Activity [2]: 72.2% | Activity [3]: 100% | Activity [4]: 100% | Time [5]: 7.1 days | Activity [6]: Active | Time [7]: 9.6 days | Activity [8]: 72.2% | Activity [9]: 100% | Time [10]: 6 days | Time [11]: 8.8 days | Time [12]: 4 days | Time [13]: 6.1 days | Activity [14]: 44.4% | Time [15]: 6 days | Activity [16]: 72.2% | Activity [17]: 100% | Time [18]: 2 days | Activity [19]: 100% | Activity [20]: 73.2% | Activity [21]: 0% | Activity [22]: 61.9% | Activity [23]: 100% | Activity [24]: 100% | Time [25]: 10.1 days | Activity [26]: 0% | Activity [27]: 44.4% | Time [28]: 10.1 days | Activity [29]: 72.2% | Activity [30]: 94.4% | Activity [31]: 66.7% | Activity [32]: 100% | Activity [33]: Active | Time [34]: 14.5 days | Activity [35]: 38.9% | Time [36]: 10 days | Activity [37]: 0% | Activity [38]: 72.2% | Time [39]: 8.1 days | Time [40]: 1.1 days | Activity [41]: 0%
